Laboratory results reported in patent US20110263657A1, “DIARYL UREAS FOR TREATING HEART FAILURE” (BAYER SCHERING PHARMA AKTIENGESELLSCHAFT, priority 2008, published 2011).

Test system: mouse models of pressure-induced heart failure
Experiment: Pressure-induced heart failure (TAC) in mice, organ weights and hemodynamic measurements
Assay type: in vivo
Details: banded (TAC) mice, 50 mg/kg/d po for 4 weeks
Protocol: The effects of the compound and drug combinations according to the invention are tested in vivo in mouse models of pressure-induced heart failure.
Methods: Pressure-Induced Heart Failure (TAC)
Surgery: 8 weeks old mice were pre-anesthetized for 2-3 min in an isofluran flooded box and then intubated (tubus of own fabrication).
Mice were placed on the right side on a heating panel and the tubus was connected to a ventilation pump (Mini Vent Type 845, Hugo Sachs Electronic) which allowed the further ventilation of mice with isofluran (1.5%).
Mice were prepared for the surgery: eyes moistened with Bepanthen® salve (pharmaceutical ointment containing dexpanthenol), operation field shaved and disinfected, mice fixated with tape in a right lateral position.
The skin cut was placed ca 2 mm behind the left elbow and was 5 mm length and vertical. Pectoral muscles were separated until ribs. A wound-spreader was placed between the 2nd and the 3rd rib and thymus was visualized. After pushing by side the thymus V. cava, A pulmonalis and Aorta with both carotid branching were viewed. With help from a curved polished vessel catheter a ligation thread was placed around the aorta between both carotid branching. The aorta was constricted to a diameter of 0.6 mm with help from a splint.
By sham operated mice the same procedure was effectuated but the aorta was not constricted.
Before they woke up, mice were given 5 mg/5 ml/kg sc Rimadyl® (Pfizer, Carprofen), wound was cleaned with […] and coated with antibiotic salve (Neomycin® salve) and Bepanthen® salve was removed from the eyes.
After awaking from anesthesia the tubus was taken off and mice were placed in their cages heated with heating panels for at least half an hour.
Mice were divided into 3 groups (n=10-12): • sham operated with vehicle treatment • placebo with vehicle treatment • Sorafenib: 50 mg/kg/d in vehicle
Substances were dissolved in 10% Ethanol, 40% Solutol and 50% water.
Application volumes: 10 ml/kg/d po
Treatment: begin 1 day after surgery for 4 weeks
After 4 weeks of treatment hemodynamic measurement were performed and mice were sacrificed.
Hemodynamic measurements: Mice were pre-anesthetized for 2-3 min in an isofluran flooded box, followed by fixation in an anesthesia mask (continuous flow of 1.5% isofluran by spontaneous breathing of the mouse). Mice were placed on the back on a heating panel.
Throats were shaved and the skin incised on the median line. The right A. carotis was prepared and ligated cranial. A tip-catheter (Millar Micro-Tip-Transducer, 1.0 oder 1.4 French, Firma HSE) was introduced in the right A. carotis and pushed into the left ventricle and fixated. There, pressure of the left ventricle was registered for a few minutes (after reaching a steady state) over the catheter and analyzed by the Millar Chart 5 software. After the measurements blood samples were taken. Finally organs (heart, lung, liver, right kidney) were collected.

CNC(=O)c1cc(Oc2ccc(NC(=O)Nc3ccc(Cl)c(C(F)(F)F)c3)cc2)ccn1 [Sorafenib, 4{4-[3-(4-chloro-3-trifluoromethylphenyl)-ureido]-phenoxy}-pyridine-2-carboxylic acid methyl amide]
Relaxation constant tau, increment: inhibited
Heart weight/body weight ratio (hypertrophy) (compared to sham operated mice): completely inhibited
Left ventricular weight/body weight ratio (hypertrophy) (compared to sham operated mice): completely inhibited
Left ventricular end diastolic pressure, augmentation compared to sham operated mice (p<0.05 compared to placebo): 7%
Left ventricular systolic pressure, augmentation compared to sham operated mice (p<0.05 compared to placebo): 8%
